Where two headings read alike, the source gives them in different places.
How the values were obtained:
[1] = test system: cortisol-producing adrenal adenoma cultures; assay: Cortisol production in primary cortisol-producing adrenal adenoma cultures; type: cell-based, human
Protocol: (§1) To obtain primary cultures, adrenal specimens (adrenocortical adenomas, adrenal hyperplasias and adrenocortical carcinomas) were collected after adrenalectomy at the department of Surgery, Erasmus University Medical Center, Rotterdam, the Netherlands, between April 2016 and May 2018. The study was conducted under guidelines that have been approved by the Medical Ethics Committee of the Erasmus Medical Center and informed consent was obtained from all patients. Immediately after surgery, specimens were minced into small pieces of 2-3 mm^3, washed in culture medium and centrifuged for 5 minutes at 600 g. The tissue was stored overnight in culture medium at 4° C., where after the tissue was centrifuged again and the supernatant was removed. Fragments were dissociated using 10-25 ml collagenase type 1 (2 mg/ml: Sigma-Aldrich), followed by incubation at 37° C. for up to two hours. Ficoll (GE healthcare) density gradient separation was used once or twice as required in order to separate contaminating red blood cells from the tumor cells. Cell viability and cell amount were counted by trypan blue exclusion. Dissociated cells were plated at a density of 10^5 cells per well. ACTH-secreting corticotroph pituitary adenoma tissue from patients with Cushing's disease (n=2) was available after transsphenoidal surgery. Single-cell suspensions of the pituitary adenoma tissues were prepared as previously described in detail.
Owing to a limited number of cells obtained from the specimens, not all experiments were carried out in every primary culture.
(§2) Cortisol concentrations were measured in the supernatant using a chemiluminescence immunoassay system (Immulite 2000XPi; Siemens DPC Inc., Los Angeles, Calif., USA). In addition, we carried out multi-steroid analysis by liquid chromatography/mass spectrometry (LC/MS-MS) to accurately quantify androstenedione, corticosterone, cortisol, 11-deoxycortisol, DHEA, DHEAS, progesterone, 17-hydroxyprogesterone, and testosterone. Concentrations that were tested on the LC/MS-MS were closest to 50% inhibition or maximal inhibition of cortisol as determined by the immunoassay. Steroids were quantified with respect to a calibration series, with internal standards. Steroids were quantified on a Xevo TQS LC-MS/MS (Waters Chromatography).
(§3) Statistical analysis was performed using Graphpad Prism 6.0 (Graphpad Software, San Diego, CA). Non-linear regression curve fitting program was used to calculate the half maximal inhibitory concentrations (IC50) on cortisol production. Effects of both compounds on the steroid profile were measured as absolute change compared to control and compared using the Student's t-test. When assessing differences between effects of both compounds, the percentage change was evaluated and compared in order to correct for differences in the vehicle treated control cells. Values of P<0.05 were considered statistically significant and data are presented as mean SEM.

[2] = test system: human primary adrenocortical cultures; assay: Cortisol production in human primary adrenocortical cultures, comparison across cultures; type: cell-based
Protocol: as §1
(§4) Primary culture conditions for primary cultures were similar as described in the section ‘cell culture and compounds’, but with small adjustments: ACTH was used at a concentration of 85 pM (250 pg/mL), treatment was started 3-4 days after plating of the cells and cells were incubated for 3 days, and; for pituitary primary cultures, levoketoconazole and racemic ketoconazole were only tested at a concentration of 1 μM. Owing to a limited number of cells obtained from the specimens, not all experiments were carried out in every primary culture.
as §2, §3

[3] = test system: CPA primary culture no. 2; assay: Steroid profile by LC/MS-MS in CPA primary culture no. 2; type: cell-based, human; settings: for 11-DOC absolute change vs control / 11-DOC percentage change vs control / 17-OHP absolute change vs control / 17-OHP percentage change vs control / Androstenedione absolute change vs control / Androstenedione percentage change vs control / Corticosterone absolute change vs control / Corticosterone percentage change vs control / Cortisol absolute change vs control / Cortisol percentage change vs control / DHEA absolute change vs control / DHEAS absolute change vs control / Prog absolute change vs control / Prog percentage change vs control / Testosterone absolute change vs control / Testosterone percentage change vs control: CPA no. 2, Basal, 3 days
Protocol: as §1, §4, §2, §3

[4] = six of the ten conditions with direct comparison in the same patient

CC(=O)N1CCN(c2ccc(OC[C@@H]3CO[C@@](Cn4ccnc4)(c4ccc(Cl)cc4Cl)O3)cc2)CC1 (relative stereo) [levoketoconazole, 2S,4R cis-1-acetyl-4-[4-[[2-(2,4-dichlorophenyl)-2-(1H-imidazol-1-ylmethyl)-1,3-dioxolan-4-yl]methoxyl]phenyl]piperazine]
IC50 ([1]; CPA no. 1, basal condition, 3 days, read-out: IC50 inhibition of cortisol production): 116 nM
IC50 ([1]; CPA no. 2, basal condition, 3 days, read-out: IC50 inhibition of cortisol production): 125 nM
IC50 ([1]; CPA no. 3, basal condition, 3 days, read-out: IC50 inhibition of cortisol production): 140 nM
IC50 ([1]; CPA no. 4, basal condition, 3 days, read-out: IC50 inhibition of cortisol production): 63.1 nM
IC50 ([1]; basal condition, ACA (n=4), read-out: mean IC50 cortisol production): 110 nM
difference in IC50 value between patients and tissue specimens ([2]; primary human adrenocortical cultures): 24 fold
11-DOC absolute change vs control ([3]; 0.1 μM): +14.80 nmol/l
11-DOC percentage change vs control ([3]; 0.1 μM): (+5.4%)
17-OHP absolute change vs control ([3]; 0.1 μM): +5.125 nmol/l
17-OHP percentage change vs control ([3]; 0.1 μM): (+26%)
Androstenedione absolute change vs control ([3]; 0.1 μM): -36.68 nmol/L
Androstenedione percentage change vs control ([3]; 0.1 μM): −79%
Corticosterone absolute change vs control ([3]; 0.1 μM): +49.50 nmol/l
Corticosterone percentage change vs control ([3]; 0.1 μM): +54%
Cortisol absolute change vs control ([3]; 0.1 μM): -264.2 nmol/L
Cortisol percentage change vs control ([3]; 0.1 μM): −40%
DHEA absolute change vs control ([3]; 0.1 μM): <LLQ
DHEAS absolute change vs control ([3]; 0.1 μM): <LLQ
Prog absolute change vs control ([3]; 0.1 μM): +2.350 nmol/l
Prog percentage change vs control ([3]; 0.1 μM): (+138%)
Testosterone absolute change vs control ([3]; 0.1 μM): -0.3750 nmol/L
Testosterone percentage change vs control ([3]; 0.1 μM): −66%
Androstenedione absolute change vs control ([3]; 0.1 μM, listed as LK): -36.68 nmol/L
Androstenedione percentage change vs control ([3]; 0.1 μM, listed as LK): (−79%)
Corticosterone percentage change vs control ([3]; 0.1 μM, listed as LK): (+54%)
Cortisol absolute change vs control ([3]; 0.1 μM, listed as LK): -264.2 nmol/L
Cortisol percentage change vs control ([3]; 0.1 μM, listed as LK): (−40%)
Testosterone absolute change vs control ([3]; 0.1 μM, listed as LK): -0.3750 nmol/L
Testosterone percentage change vs control ([3]; 0.1 μM, listed as LK): (−66%)
11-DOC absolute change vs control ([3]; 0.5 μM): -98.25 nmol/L
11-DOC percentage change vs control ([3]; 0.5 μM): (−36%)
17-OHP absolute change vs control ([3]; 0.5 μM): +21.28 nmol/l
17-OHP percentage change vs control ([3]; 0.5 μM): (+107%)
Androstenedione absolute change vs control ([3]; 0.5 μM): -45.18 nmol/L
Androstenedione percentage change vs control ([3]; 0.5 μM): (−97%)
Corticosterone absolute change vs control ([3]; 0.5 μM): +218.0 nmol/l
Corticosterone percentage change vs control ([3]; 0.5 μM): (+239%)
Cortisol absolute change vs control ([3]; 0.5 μM): -633.3 nmol/L
Cortisol percentage change vs control ([3]; 0.5 μM): (−96%)
DHEA absolute change vs control ([3]; 0.5 μM): <LLQ
DHEAS absolute change vs control ([3]; 0.5 μM): <LLQ
Prog absolute change vs control ([3]; 0.5 μM): +39.95 nmol/l
Prog percentage change vs control ([3]; 0.5 μM): (+2350%)
Testosterone absolute change vs control ([3]; 0.5 μM): -0.4725 nmol/L
Testosterone percentage change vs control ([3]; 0.5 μM): (−83%)
total change of steroids: decrease ([3]; CPA no. 2, basal, 0.1 μM): 229.5 nmol/L

CC(=O)N1CCN(c2ccc(OCC3COC(Cn4ccnc4)(c4ccc(Cl)cc4Cl)O3)cc2)CC1 (racemic) [racemic ketoconazole, Ketoconazole]
IC50 ([1]; Homo sapiens, 72 h, CPA no. 2, basal condition, 3 days, read-out: IC50 inhibition of cortisol production): 266 nM
IC50 ([1]; Homo sapiens, 72 h, CPA no. 3, basal condition, 3 days, read-out: IC50 inhibition of cortisol production): 138 nM
mean difference in IC50 between both compounds ([2]; four remaining cultures): 5%
range of difference in IC50 between both compounds ([2]; four remaining cultures): 1-8%
mean increase IC50 compared to levoketoconazole [2, 4]: 52%
range of increase IC50 compared to levoketoconazole [2, 4]: 33-113%
11-DOC absolute change vs control ([3]; 0.1 μM): +6.400 nmol/l
11-DOC percentage change vs control ([3]; 0.1 μM): (+2.4%)
17-OHP absolute change vs control ([3]; 0.1 μM): -0.4750 nmol/L
17-OHP percentage change vs control ([3]; 0.1 μM): (−2.4%)
Androstenedione absolute change vs control ([3]; 0.1 μM): -32.85 nmol/L
Androstenedione percentage change vs control ([3]; 0.1 μM): −66%
Corticosterone absolute change vs control ([3]; 0.1 μM): +175.8 nmol/l
Corticosterone percentage change vs control ([3]; 0.1 μM): +213%
Cortisol absolute change vs control ([3]; 0.1 μM): -92.95 nmol/L
Cortisol percentage change vs control ([3]; 0.1 μM): −14%
DHEA absolute change vs control ([3]; 0.1 μM): <LLQ
DHEAS absolute change vs control ([3]; 0.1 μM): <LLQ
Prog absolute change vs control ([3]; 0.1 μM): +0.5167 nmol/l
Prog percentage change vs control ([3]; 0.1 μM): (+36%)
Testosterone absolute change vs control ([3]; 0.1 μM): -0.3250 nmol/L
Testosterone percentage change vs control ([3]; 0.1 μM): (−57%)
Androstenedione percentage change vs control ([3]; 0.1 μM, listed as RK): (−66%*)
Corticosterone percentage change vs control ([3]; 0.1 μM, listed as RK): (+213%****)
Cortisol percentage change vs control ([3]; 0.1 μM, listed as RK): (−14%**)
11-DOC absolute change vs control ([3]; 0.5 μM): -37.70 nmol/L
11-DOC percentage change vs control ([3]; 0.5 μM): (−14%***)
17-OHP absolute change vs control ([3]; 0.5 μM): +11.45 ± 1 nmol/l
17-OHP percentage change vs control ([3]; 0.5 μM): (+58%*)
Androstenedione absolute change vs control ([3]; 0.5 μM): -47.28 nmol/L
Androstenedione percentage change vs control ([3]; 0.5 μM): (−95%)
Corticosterone absolute change vs control ([3]; 0.5 μM): +143.8 nmol/l
Corticosterone percentage change vs control ([3]; 0.5 μM): (+174%*)
Cortisol absolute change vs control ([3]; 0.5 μM): -562.7 nmol/L
Cortisol percentage change vs control ([3]; 0.5 μM): (−87%)
DHEA absolute change vs control ([3]; 0.5 μM): <LLQ
DHEAS absolute change vs control ([3]; 0.5 μM): <LLQ
Prog absolute change vs control ([3]; 0.5 μM): +22.47 nmol/l
Prog percentage change vs control ([3]; 0.5 μM): (+1567%)
Testosterone absolute change vs control ([3]; 0.5 μM): -0.4475 nmol/L
Testosterone percentage change vs control ([3]; 0.5 μM): (−79%)
total change of steroids: increase ([3]; CPA no. 2, basal, 0.1 μM): 55.6 nmol/L

— patent US12201632B2, “Levoketoconazole for treatment of congenital adrenal hyperplasia and primary aldosteronism” (Strongbridge Dublin Limited, priority 2018, dated 2025)
